Literature values in US20150024505A1, “APPARATUS FOR EVALUATING CARBONATE SOLUBILITY” (SAUDI ARABIAN OIL COMPANY, priority 2013, published 2015).

Conditions: in water; 10,000 psig and 300° F. required to reach this level

limit of CO2 solubility: about 150 scf/stb of water
Compound: O=C=O [CO2]
